Assay results reported in ChEMBL document CHEMBL4507319 (2021).

Columns and labels:
[1] = molecular target: T1, Phosphatidylinositol 3-kinase C2 domain-containing subunit gamma (Homo sapiens) (UniProt O75747); settings: Compound concentration 1000.0 nM
T1 sequence (whole entry): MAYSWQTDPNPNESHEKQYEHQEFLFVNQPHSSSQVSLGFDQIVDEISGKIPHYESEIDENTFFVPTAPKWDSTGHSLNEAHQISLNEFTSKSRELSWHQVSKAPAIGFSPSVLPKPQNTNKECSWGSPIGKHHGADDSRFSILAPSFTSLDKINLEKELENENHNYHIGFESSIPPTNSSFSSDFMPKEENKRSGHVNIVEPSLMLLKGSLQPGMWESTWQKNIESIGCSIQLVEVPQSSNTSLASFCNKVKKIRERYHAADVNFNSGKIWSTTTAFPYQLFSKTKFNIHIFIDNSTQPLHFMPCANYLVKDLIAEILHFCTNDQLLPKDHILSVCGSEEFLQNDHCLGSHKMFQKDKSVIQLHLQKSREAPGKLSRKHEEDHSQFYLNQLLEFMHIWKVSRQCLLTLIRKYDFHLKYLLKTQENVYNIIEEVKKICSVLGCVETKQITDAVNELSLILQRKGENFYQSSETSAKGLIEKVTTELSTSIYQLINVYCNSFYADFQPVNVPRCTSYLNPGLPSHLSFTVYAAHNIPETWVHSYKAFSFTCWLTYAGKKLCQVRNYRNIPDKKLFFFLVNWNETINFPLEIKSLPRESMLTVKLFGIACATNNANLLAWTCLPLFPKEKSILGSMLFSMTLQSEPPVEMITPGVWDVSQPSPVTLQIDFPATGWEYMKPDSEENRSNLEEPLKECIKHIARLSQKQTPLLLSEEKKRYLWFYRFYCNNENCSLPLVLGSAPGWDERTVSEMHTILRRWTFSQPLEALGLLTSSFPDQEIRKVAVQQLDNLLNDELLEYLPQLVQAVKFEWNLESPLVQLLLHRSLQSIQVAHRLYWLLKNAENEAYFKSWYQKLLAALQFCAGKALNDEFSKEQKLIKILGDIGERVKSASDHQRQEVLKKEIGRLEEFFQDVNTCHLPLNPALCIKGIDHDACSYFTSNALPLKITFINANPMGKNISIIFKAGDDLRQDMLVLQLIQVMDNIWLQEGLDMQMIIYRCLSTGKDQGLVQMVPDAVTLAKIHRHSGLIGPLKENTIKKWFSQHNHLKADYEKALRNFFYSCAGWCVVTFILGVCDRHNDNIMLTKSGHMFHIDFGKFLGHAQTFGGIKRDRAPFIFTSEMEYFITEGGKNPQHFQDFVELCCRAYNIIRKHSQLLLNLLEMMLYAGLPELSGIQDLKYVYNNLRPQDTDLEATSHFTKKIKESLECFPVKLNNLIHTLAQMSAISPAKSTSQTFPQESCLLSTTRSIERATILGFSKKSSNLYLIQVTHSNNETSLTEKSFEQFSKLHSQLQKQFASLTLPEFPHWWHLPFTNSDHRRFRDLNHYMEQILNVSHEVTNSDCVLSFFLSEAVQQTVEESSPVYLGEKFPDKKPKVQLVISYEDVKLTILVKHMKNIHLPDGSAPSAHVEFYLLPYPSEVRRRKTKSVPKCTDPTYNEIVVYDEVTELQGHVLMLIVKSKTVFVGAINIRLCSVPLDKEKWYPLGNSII

[2] = molecular target: Microtubule-associated serine/threonine-protein kinase 1 (Homo sapiens) (UniProt Q9Y2H9); settings: Compound concentration 1000.0 nM
[3] = molecular target: Serine/threonine-protein kinase WNK4 (Homo sapiens) (UniProt Q96J92); settings: Compound concentration 1000.0 nM
[4] = molecular target: Calcium/calmodulin-dependent protein kinase type II subunit beta (Homo sapiens) (UniProt Q13554); settings: Compound concentration 1000.0 nM
[5] = molecular target: Casein kinase II subunit alpha (Homo sapiens) (UniProt P68400); settings: Compound concentration 1000.0 nM
[6] = molecular target: Histamine H1 receptor (Homo sapiens) (UniProt P35367); settings: Compound concentration 10.0 uM
[7] = molecular target: T2, Serine/threonine-protein kinase TAO2 (Homo sapiens) (UniProt Q9UL54); settings: Compound concentration 1000.0 nM
T2 sequence (whole entry): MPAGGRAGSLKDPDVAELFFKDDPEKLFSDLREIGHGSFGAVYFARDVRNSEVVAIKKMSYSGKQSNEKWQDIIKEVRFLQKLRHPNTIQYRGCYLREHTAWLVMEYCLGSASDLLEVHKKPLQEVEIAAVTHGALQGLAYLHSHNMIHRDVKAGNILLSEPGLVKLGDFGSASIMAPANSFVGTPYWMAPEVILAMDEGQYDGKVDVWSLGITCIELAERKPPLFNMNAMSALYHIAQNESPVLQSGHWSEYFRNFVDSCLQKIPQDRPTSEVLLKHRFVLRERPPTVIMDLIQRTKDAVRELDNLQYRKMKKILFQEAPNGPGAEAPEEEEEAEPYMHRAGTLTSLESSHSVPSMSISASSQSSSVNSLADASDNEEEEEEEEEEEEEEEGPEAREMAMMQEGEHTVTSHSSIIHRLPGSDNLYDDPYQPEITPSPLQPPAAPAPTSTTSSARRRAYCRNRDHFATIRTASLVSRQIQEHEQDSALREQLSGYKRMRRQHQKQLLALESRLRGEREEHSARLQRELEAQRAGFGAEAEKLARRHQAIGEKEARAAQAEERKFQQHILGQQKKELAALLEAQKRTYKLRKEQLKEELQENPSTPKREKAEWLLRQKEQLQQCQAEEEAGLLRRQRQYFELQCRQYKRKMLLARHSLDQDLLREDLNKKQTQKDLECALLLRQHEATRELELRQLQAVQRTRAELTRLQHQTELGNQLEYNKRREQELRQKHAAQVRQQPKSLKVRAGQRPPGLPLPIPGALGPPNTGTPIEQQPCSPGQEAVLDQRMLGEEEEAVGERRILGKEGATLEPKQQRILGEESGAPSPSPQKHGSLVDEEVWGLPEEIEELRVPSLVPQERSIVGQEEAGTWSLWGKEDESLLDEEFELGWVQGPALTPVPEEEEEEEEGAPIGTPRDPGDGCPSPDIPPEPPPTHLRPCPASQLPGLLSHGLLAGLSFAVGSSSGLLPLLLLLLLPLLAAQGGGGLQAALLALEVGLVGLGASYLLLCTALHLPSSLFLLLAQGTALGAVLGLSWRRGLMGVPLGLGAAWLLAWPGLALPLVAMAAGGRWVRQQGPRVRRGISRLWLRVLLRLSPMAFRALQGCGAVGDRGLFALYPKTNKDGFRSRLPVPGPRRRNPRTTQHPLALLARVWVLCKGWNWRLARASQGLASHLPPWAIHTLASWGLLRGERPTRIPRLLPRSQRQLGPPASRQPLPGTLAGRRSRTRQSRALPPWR

[8] = molecular target: Ankyrin repeat and protein kinase domain-containing protein 1 (Homo sapiens) (UniProt Q8NFD2); settings: Compound concentration 1000.0 nM
Chain of Ankyrin repeat and protein kinase domain-containing protein 1 (Homo sapiens) (Q8NFD2 whole entry, the tested form may be a part): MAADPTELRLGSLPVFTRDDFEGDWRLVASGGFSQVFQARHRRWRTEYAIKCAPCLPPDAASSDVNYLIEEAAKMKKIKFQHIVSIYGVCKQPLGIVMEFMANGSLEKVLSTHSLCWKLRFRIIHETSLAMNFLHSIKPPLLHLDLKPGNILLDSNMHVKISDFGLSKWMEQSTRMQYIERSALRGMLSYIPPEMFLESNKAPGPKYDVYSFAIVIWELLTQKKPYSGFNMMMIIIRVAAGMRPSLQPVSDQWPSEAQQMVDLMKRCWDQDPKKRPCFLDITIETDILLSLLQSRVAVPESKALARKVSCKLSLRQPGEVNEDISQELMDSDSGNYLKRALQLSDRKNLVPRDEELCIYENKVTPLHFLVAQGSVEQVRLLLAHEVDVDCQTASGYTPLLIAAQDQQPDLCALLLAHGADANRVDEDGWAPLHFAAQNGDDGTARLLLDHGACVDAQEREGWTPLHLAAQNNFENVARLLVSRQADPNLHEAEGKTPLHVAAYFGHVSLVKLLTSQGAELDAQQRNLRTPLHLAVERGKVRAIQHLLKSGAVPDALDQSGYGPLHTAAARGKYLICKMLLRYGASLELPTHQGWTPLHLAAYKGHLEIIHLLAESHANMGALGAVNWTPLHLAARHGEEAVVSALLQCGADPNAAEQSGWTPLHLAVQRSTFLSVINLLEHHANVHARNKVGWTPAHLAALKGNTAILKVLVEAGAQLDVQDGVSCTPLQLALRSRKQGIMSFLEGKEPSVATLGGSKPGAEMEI

Chain of Calcium/calmodulin-dependent protein kinase type II subunit beta (Homo sapiens) (Q13554 whole entry): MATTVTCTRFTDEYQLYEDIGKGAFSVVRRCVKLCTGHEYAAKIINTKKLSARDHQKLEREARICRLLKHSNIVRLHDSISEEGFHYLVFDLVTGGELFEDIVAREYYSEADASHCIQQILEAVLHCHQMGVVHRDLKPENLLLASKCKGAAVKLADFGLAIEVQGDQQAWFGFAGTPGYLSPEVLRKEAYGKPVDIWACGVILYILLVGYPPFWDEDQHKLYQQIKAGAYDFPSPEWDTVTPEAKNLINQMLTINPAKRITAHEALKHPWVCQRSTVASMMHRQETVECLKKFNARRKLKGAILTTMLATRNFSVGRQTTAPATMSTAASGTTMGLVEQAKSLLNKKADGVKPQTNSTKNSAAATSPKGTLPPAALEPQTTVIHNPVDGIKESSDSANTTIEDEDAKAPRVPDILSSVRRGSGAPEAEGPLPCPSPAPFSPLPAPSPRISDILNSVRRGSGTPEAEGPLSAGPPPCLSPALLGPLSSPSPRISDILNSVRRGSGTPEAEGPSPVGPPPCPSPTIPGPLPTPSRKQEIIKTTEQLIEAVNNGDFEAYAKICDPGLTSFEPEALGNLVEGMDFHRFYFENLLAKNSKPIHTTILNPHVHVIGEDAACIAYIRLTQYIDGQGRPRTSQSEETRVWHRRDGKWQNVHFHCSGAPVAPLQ
Chain of Serine/threonine-protein kinase WNK4 (Homo sapiens) (Q96J92 whole entry): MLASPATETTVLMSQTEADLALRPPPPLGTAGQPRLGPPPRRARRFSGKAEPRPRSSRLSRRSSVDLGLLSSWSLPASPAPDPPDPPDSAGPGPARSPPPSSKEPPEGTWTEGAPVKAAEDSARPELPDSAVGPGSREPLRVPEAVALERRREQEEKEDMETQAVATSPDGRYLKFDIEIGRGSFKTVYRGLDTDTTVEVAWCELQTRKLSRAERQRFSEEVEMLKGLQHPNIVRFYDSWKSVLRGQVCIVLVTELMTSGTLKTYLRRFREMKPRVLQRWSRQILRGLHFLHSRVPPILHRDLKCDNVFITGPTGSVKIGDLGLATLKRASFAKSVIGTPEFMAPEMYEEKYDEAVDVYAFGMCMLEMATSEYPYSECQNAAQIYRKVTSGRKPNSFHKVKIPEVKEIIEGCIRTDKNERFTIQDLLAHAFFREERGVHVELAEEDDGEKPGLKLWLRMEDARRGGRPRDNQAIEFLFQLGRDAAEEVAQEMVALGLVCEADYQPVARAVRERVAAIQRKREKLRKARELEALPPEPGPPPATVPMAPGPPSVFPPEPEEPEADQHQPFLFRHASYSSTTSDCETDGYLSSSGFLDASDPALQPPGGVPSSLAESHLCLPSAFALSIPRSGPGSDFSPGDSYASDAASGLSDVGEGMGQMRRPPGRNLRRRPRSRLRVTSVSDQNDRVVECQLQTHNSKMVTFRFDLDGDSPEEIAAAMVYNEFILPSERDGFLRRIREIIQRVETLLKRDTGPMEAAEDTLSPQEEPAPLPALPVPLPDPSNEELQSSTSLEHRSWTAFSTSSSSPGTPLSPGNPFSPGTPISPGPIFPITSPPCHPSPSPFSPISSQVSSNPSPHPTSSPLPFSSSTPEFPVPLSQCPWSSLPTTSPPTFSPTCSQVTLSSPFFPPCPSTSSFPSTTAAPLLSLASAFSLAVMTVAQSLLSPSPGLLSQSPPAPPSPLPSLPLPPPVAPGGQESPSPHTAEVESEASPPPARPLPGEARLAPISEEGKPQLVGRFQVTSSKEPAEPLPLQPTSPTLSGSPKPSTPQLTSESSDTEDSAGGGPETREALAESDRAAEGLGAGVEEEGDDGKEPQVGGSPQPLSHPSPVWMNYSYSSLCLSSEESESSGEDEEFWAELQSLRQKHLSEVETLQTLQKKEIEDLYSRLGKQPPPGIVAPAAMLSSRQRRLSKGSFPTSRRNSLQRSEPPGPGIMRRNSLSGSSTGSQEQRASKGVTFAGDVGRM
Chain of Microtubule-associated serine/threonine-protein kinase 1 (Homo sapiens) (Q9Y2H9 whole entry, looked up): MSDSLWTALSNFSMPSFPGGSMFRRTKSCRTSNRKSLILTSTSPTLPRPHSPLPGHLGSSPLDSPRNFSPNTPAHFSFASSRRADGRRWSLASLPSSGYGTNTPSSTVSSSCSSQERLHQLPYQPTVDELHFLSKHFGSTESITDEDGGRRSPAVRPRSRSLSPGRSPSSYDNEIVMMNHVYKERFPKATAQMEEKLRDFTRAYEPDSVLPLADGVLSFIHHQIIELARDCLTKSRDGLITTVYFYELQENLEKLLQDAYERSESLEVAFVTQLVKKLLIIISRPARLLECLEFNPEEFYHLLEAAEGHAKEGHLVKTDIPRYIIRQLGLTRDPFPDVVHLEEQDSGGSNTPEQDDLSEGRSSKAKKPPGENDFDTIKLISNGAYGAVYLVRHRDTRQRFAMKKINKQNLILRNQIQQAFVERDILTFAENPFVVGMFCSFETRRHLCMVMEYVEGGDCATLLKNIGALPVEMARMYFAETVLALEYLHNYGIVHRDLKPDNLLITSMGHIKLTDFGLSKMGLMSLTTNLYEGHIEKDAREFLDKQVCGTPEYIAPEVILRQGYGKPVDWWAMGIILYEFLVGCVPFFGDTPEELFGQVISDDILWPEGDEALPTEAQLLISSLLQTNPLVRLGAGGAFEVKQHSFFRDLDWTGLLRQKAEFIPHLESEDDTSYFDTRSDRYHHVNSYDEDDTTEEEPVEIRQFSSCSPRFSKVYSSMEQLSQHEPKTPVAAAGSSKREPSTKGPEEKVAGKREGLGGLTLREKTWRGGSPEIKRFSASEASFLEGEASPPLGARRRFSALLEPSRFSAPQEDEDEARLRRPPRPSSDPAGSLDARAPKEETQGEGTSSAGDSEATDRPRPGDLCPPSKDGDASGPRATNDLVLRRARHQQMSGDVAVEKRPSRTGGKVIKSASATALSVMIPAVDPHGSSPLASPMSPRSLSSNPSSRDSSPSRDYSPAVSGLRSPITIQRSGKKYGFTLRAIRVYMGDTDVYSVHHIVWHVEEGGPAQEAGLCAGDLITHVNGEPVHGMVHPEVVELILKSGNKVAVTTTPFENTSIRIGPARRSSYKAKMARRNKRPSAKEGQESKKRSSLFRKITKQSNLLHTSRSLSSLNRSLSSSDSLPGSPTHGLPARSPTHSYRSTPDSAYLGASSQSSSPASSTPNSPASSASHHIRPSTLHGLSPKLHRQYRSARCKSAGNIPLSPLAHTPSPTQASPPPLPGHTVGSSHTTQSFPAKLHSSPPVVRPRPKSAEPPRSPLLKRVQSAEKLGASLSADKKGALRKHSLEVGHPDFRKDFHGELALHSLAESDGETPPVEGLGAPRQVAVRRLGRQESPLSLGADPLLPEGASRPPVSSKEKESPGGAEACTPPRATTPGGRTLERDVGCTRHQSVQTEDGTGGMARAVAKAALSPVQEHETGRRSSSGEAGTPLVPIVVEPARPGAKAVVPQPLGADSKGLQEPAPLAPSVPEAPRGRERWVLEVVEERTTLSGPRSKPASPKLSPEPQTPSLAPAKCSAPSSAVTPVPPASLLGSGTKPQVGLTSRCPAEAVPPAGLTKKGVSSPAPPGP
Chain of Histamine H1 receptor (Homo sapiens) (P35367 whole entry): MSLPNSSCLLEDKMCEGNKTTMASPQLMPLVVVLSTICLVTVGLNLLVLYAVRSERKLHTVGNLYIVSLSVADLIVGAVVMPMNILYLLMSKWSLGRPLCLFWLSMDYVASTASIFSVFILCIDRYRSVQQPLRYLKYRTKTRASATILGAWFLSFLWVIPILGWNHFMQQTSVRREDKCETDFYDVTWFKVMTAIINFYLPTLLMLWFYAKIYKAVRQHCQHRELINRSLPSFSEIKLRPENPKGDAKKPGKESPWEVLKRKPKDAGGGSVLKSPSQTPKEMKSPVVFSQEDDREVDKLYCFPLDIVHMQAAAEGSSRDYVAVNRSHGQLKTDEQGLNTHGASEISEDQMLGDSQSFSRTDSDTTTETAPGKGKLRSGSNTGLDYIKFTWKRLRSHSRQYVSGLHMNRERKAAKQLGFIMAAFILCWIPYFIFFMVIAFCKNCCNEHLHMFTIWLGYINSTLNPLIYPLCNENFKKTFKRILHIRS

CC1=C(C#N)C(c2ccc3c(c2)c(NC(=O)c2ccccc2C)nn3C)C(C#N)=C(C)N1 [BAY-974]
inactive: residual activity [1] 61% | residual activity [2] 92% | residual activity [3] 95% | residual activity [4] 86% | residual activity [5] 63% | inhibition [6] 0.94% | residual activity [7] 70% | residual activity [8] 92%

CCc1ccccc1C(=O)Nc1n[nH]c2c(C)c(F)c(C3C(C#N)=C(C)N(C)C(C)=C3C#N)cc12 [BAY-3827]
inactive: residual activity [1] 95% | residual activity [2] 100% | residual activity [3] 94% | residual activity [4] 73% | residual activity [5] 100% | inhibition [6] 6.23% | residual activity [7] 96% | residual activity [8] 100%
